How the values were obtained:
[1] = tested on: VEGF-induced migration of HUVECs; assay: VEGF-induced HUVEC migration assay; format: cell-based, human
Procedure: After 22 hours, quantitation of cell migration/invasion was achieved by post-labeling cells in the insert plates with a fluorescent dye and measuring the fluorescence of the invading/migrating cells in a fluorescent plate reader. The VEGF-induced migration was calculated by subtracting the migration that occurred when only basal medium was placed in the lower chamber of the wells.
(§1) Serum-starved HUVECs were placed, 100,000 cells per well, into the upper chambers of BD fibronectin-coated FluoroBlok 24-well insert plates. […] After 22 hours, quantitation of cell migration/invasion was achieved by post-labeling cells in the insert plates with a fluorescent dye and measuring the fluorescence of the invading/migrating cells in a fluorescent plate reader. The VEGF-induced migration was calculated for each experimental condition by subtracting the amount of migration that occurred when only basal medium was added to the lower chamber of the wells.
as §1, with “reader.” for “reader. The”, “observed in” for “that occurred when only basal medium was added to”, “absence” for “lower chamber”, “VEGF.” for “the wells.”
as §1, with “VEGF-stimulated” for “The VEGF-induced”, “derived” for “calculated for each experimental condition”, “basal migration measured in the absence” for “amount”, “VEGF.” for “migration that occurred when only basal medium was added to the lower chamber of the wells.”
Serum-starved HUVECs were placed, 100,000 cells per well, into the upper chambers of BD fibronectin-coated FluoroBlok 24-well insert plates. […] After 22 hours, quantitation of cell migration/invasion was achieved by post-labeling cells in the insert plates with a fluorescent dye and measuring the fluorescence of the invading/migrating cells in a fluorescent plate reader.

murine KDR-Fc = target: T1, murine KDR-Fc (Mus musculus, UniProt P35918); assay: BIAcore kinetic analysis of binding to murine KDR-Fc
T1 construct: purchased R & D Systems (Minneapolis, Minn.) 443-KD-050
T1 sequence (P35918 with tags, fused parts or gaps limits assumed): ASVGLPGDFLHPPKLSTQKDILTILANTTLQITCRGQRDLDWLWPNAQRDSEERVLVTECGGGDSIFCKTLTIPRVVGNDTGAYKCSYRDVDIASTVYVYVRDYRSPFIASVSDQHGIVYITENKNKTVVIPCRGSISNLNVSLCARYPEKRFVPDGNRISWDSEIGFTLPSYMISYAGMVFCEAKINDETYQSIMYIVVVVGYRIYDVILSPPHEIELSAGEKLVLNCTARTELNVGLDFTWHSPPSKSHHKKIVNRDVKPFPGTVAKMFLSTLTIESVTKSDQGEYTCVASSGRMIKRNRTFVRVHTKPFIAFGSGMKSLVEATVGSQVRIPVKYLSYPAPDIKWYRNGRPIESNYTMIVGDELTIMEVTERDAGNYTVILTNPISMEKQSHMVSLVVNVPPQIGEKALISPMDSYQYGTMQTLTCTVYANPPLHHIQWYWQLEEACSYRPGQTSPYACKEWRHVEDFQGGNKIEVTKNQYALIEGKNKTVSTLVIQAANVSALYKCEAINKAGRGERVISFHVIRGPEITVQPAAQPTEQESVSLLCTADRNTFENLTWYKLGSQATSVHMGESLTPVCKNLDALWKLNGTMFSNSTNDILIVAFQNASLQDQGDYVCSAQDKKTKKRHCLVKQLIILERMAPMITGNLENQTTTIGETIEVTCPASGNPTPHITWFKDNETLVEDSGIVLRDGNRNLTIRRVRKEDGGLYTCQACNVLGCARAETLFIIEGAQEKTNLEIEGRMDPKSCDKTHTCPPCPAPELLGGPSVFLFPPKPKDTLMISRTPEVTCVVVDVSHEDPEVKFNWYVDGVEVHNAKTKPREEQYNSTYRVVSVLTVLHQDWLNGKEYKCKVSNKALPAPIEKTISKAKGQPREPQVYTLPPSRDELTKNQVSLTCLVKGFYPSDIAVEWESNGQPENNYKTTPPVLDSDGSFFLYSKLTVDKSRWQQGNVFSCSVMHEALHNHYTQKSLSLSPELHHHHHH
Procedure: Three densities of recombinant murine KDR-Fc were cross-linked to the dextran surface of a CM5 sensor chip by the standard amine coupling procedure (0.5 mg/mL solution diluted 1:100 or 1:40 with 50 mM acetate, pH 6.0). Flow cell 1 was activated and then blocked to serve as a reference subtraction.
All samples were injected in duplicate. For association, peptides were injected at 30 μL/min for 3 minutes using the kinject program. Following a 10 minute dissociation, any remaining peptide was stripped from the rmKDR-Fc surface with a quickinject of 50 mM NaOH+1 M NaCl for 12 s at 75 μL/min.
Sensorgrams were analyzed using the simultaneous ka/kd fitting program in the BIAevaluation software 3.1.

KDR [2] = target: T2, KDR (Homo sapiens, UniProt P35968); assay: SPR analysis of dimer affinity for KDR; format: binding
Target sequence in this assay (P35968 20-1356, species assumed): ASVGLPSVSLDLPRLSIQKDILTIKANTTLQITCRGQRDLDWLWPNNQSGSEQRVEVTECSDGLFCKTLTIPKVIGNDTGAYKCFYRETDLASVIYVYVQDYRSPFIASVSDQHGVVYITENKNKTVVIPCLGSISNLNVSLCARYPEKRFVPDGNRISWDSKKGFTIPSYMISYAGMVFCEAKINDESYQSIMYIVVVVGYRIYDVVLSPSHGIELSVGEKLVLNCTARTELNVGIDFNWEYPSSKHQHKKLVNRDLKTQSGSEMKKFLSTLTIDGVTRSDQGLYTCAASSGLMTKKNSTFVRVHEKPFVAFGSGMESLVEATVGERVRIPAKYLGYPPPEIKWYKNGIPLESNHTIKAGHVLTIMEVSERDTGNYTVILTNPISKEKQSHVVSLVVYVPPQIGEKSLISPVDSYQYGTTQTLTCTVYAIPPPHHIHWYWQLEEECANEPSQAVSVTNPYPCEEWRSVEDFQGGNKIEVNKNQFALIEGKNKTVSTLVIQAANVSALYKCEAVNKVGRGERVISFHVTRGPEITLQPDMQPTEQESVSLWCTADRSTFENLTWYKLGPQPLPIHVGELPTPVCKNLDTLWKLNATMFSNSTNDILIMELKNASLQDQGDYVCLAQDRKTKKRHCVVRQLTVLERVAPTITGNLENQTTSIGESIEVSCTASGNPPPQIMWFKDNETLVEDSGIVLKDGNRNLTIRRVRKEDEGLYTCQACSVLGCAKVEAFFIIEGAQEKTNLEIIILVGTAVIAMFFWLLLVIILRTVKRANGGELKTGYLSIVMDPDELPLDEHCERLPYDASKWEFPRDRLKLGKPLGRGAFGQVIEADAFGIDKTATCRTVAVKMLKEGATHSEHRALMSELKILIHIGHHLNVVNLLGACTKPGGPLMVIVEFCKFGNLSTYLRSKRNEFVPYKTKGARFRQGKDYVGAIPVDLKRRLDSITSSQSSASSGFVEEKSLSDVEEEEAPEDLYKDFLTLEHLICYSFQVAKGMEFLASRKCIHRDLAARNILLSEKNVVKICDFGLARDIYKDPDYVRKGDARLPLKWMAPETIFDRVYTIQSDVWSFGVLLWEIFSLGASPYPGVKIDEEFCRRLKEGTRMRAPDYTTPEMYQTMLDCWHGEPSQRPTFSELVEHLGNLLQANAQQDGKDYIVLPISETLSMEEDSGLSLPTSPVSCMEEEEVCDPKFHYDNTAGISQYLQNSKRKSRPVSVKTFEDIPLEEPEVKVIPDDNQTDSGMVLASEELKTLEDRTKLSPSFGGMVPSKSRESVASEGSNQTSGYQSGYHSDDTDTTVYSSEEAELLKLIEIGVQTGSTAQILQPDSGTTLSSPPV

KDR [3] = target: T2, KDR; assay: Inhibition of VEGF-induced KDR receptor activation (phosphorylation) in HUVECs; format: cell-based; design: host or cells: HUVEC
Target sequence in this assay (P35968 20-1356): as the sequence (P35968 20-1356, species assumed) above
Procedure: In some cases, a neutralizing anti-KDR antibody (Catalog #AF357, R&D Systems) was used as a positive control inhibitor of activation. In such cases, the antibody was pre-incubated with the test cells for 30 min at 37° C. prior to the addition of fresh medium containing both VEGF and the antibody. After incubating the dishes 5 min. in a 37° C. tissue culture incubator they were washed three times with ice-cold D-PBS containing calcium and magnesium and placed on ice without removing the last 10 mL of Delbecco's phosphate buffered saline (D-PBS). […] Another 0.5 mL of lysis buffer was used to rinse out the first dish then transferred to the second dish, which was then also scraped and dispersed. The pooled lysate from the two dishes was transferred to a 1.5 mL Eppindorf tube. The above procedure was repeated for each of the controls and test samples (KDR-binding peptides), one at a time. The lysates were stored on ice until all the samples had been processed. At this point samples were either stored at −70° C. or processed to the end of the assay without interruption.
The next day 40 μl of protein A-sepharose beads were added to the tubes that were then incubated 4 C for 1 hr. on a rotator. […] After cooling, the beads in each tube were pelleted by centrifuging and the supernatants containing the immunoprecipitated KDR were transferred to new tubes and used immediately or frozen and stored at −70 C for later analysis.
Detection of phosphorylated KDR as well as total KDR in the immunoprecipitates was carried out by immunoblot analysis.
The blots were first probed with an anti-phosphotyrosine antibody (Transduction Labs, Catalog #P11120), diluted 1:200 in 5% Blotto-TBS with 0.1% Tween 20 added for 2 hr. at room temp. […]
After 5 min of treatment, lysates were prepared from each set of dishes. KDR was immunoprecipitated from the lysates was analyzed sequentially by immunoblotting for phosphorylation with an anti-phosphotyrosine antibody, and for total KDR with an anti-KDR antibody (to control for sample loading).

PC3 cell tumors = conditions: 500 microcuries of Lu-labeled D13 i.v., 18 days
Procedure: PC3 cells from ATCC, grown as recommended by the supplier, were injected subcutaneously between the shoulder blades of nude mice. When their tumors reached 100-400 mm^3, twelve mice were injected i.v. with 500 microcuries of Lu-labeled D13 and their growth monitored for an additional 18 days. Mice were sacrificed if they lost 20% or more of their body weight or their tumors exceeded 2000 mm^3. Tumor growth in the treated mice was compared with the average tumor growth in 37 untreated nude mice implanted with PC3 tumors.

[4] = tested on: VEGF-induced peritoneal vascular permeability; assay: Blocking VEGF-enhanced peritoneal vascular permeability (Evan's Blue); format: in vivo, mice; conditions: 20 μM with […] VEGF165 i.p.
Procedure: Male balb/c nu/nu mice were injected intraperitoneally with 2 mL vehicle (1% bovine serum albumin in 95% saline/5% DMSO), vehicle+1.2 nM VEGF165, or vehicle+1.2 nM VEGF165+20 μM D10. Immediately after, the mice were injected with Evan's Blue Dye (0.5% in saline, 4 mL/kg) i.v. via their tail veins. After 60 min, mice were sacrificed by CO2 asphyxiation and the peritoneal fluid was retrieved. After centrifuging the samples briefly, the absorbance at 590 nm was measured for each.

[5] = vs. 2700RU murine KDR-Fc surface
[6] = vs. 5000RU murine KDR-Fc surface

In the case of “Ac-AGPTWCEDDWYYCWLFGTGGGK (SEQ ID NO:277)[(Biotin-JJK-(O═)C(CH2)3C(═O)-JJ-NH(CH2)4—(S)—CH((Ac-VCWEDSWGGEVCFRYDPGGGK (SEQ ID NO:337))-NH)CONH2]—NH2 [D1]”, the “VEGF-stimulated endothelial cell migration blocked” value ([1]; 5 nM) is reported as 84%, the “VEGF-stimulated endothelial cell migration blocked” value ([1]; 25 nM) is reported as “almost completely blocked” and the “Inhibition of VEGF-stimulated migration” value ([1]; 50 nM) is reported as “completely blocked”. For the same substance, the “Effect on serum-induced migration” value ([1]; serum (5% FBS) used in place of VEGF) was “not significantly diminished”, the “Kd1” value (murine KDR-Fc; [5]) was 0.0139 s⁻¹ and the “ka1” value (murine KDR-Fc; [5]) was 794000 M⁻¹ s⁻¹. For the same substance, the “ka2 (1/RUs)” value (murine KDR-Fc; [5]) was 3.31E−04 1/RUs, the “kd2” value (murine KDR-Fc; [5]) was 0.000596 s⁻¹ and the “Kd1” value (murine KDR-Fc; [6]) was 0.00888 s⁻¹. For the same substance, the “ka1” value (murine KDR-Fc; [6]) was 554000 M⁻¹ s⁻¹, the “ka2 (1/RUs)” value (murine KDR-Fc; [6]) was 1.17E−04 1/RUs and the “kd2” value (murine KDR-Fc; [6]) was 0.000457 s⁻¹. For the same substance, the “Fold higher affinity for KDR than D2 (by SPR analysis)” value (KDR [2]) was 10 fold, the “Fold lower IC50 than D2 in the activation assay” value (KDR [3]) was “at least 100 fold” and the “Block of VEGF-induced phosphorylation of KDR” value (KDR [3]; 1 nM) was “More than half”. For the same substance, the “Block of VEGF-induced phosphorylation of KDR” value (KDR [3]; 10 nM) was “completely block”.
“Ac-AGPTWCEDDWYYCWLFGTGGGK (SEQ ID NO:277){Ac-VCWEDSWGGEVCFRYDPGGGK (SEQ ID NO:337)[JJ-Glut-K(BOA)]—NH2}—NH2 [D13]” was tested, and the “Treated mice with significant or complete tumor growth delay” value (PC3 cell tumors) was 6 of the 12.
With “Ac-AGPTWCEDDWYYCWLFGTGGGK (SEQ ID NO:277){[Ac-GDSRVCWEDSWGGEVCFRYDPGGGK (SEQ ID NO:294) (JJ-Glut-NH(CH2)4—(S)—CH(PnAO6-Glut-NH) (C═O—)]—NH2}—NH2 [D10]” the “Block of VEGF-increased dye leakage into the peritoneum” value [4] was “substantially blocked”.

Reference: patent US9408926B2, “KDR and VEGF/KDR binding peptides and their use in diagnosis and therapy” (Bracco Suisse S.A., priority 2002, dated 2016)
